Our source for the TGI values is PubChem BioAssay (NCI).

Some test systems named below: HT29 colon; K-562 leukemia; T-47D breast; NCI-H460 lung; NCI-H522 lung; ACHN renal; OVCAR-8 ovarian; NCI/ADR-RES ovarian; UO-31 renal; SK-MEL-2 melanoma; HL-60(TB) leukemia; NCI-H23 lung; EKVX NSCLC; HOP-92 NSCLC; SN12C renal; SK-OV-3 ovarian; SF-268 CNS; DU-145 prostate; HCC-2998 colon.
Holding throughout (assay): NCI tumour cell line growth inhibition, 48 h

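Compound exposure: 48 hours, 5 concentrations, 96-well plates. At the TGI there is no net growth.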 Some results are limits rather than exact numbers.

`COc1cc(C2SCC(=O)N2c2ccc(Cl)c(Cl)c2)cc(OC)c1OC` (configuration not stated): the TGI in the assay on HT29 colon was greater than 100 µM; in the assay with K-562 leukemia, greater than 100 µM; in the assay with T-47D breast it was greater than 63.6 µM; with NCI-H460 lung it was greater than 100 µM; in the assay on NCI-H522 lung, greater than 100 µM; in the assay on ACHN renal, greater than 100 µM. Also, the TGI was greater than 100 µM in the assay with OVCAR-8 ovarian; greater than 100 µM in the assay on NCI/ADR-RES ovarian; greater than 100 µM in the assay on UO-31 renal; greater than 100 µM in the assay with SK-MEL-2 melanoma; greater than 73.9 µM in the assay with HL-60(TB) leukemia; greater than 100 µM in the assay with NCI-H23 lung. Further, the TGI with EKVX NSCLC is greater than 87.9 µM; in the assay on HOP-92 NSCLC it was greater than 100 µM; with SN12C renal, greater than 100 µM; with SK-OV-3 ovarian, greater than 100 µM; in the assay with SF-268 CNS, greater than 100 µM; in the assay on DU-145 prostate, greater than 100 µM. In the assay on HCC-2998 colon, this molecule registered a TGI greater than 100 µM.

`CCN1CCN=c2c3cc(OC)ccc3n3cnc4ccc1c2c43`: the TGI with HT29 colon is 1.01 µM; in the assay on K-562 leukemia it was 0.4 µM; in the assay with T-47D breast, 3.06 µM; in the assay with NCI-H460 lung, 0.308 µM; with NCI-H522 lung it was 0.207 µM; in the assay with ACHN renal, 0.792 µM. Moreover, the TGI with OVCAR-8 ovarian is 1.4 µM; in the assay with NCI/ADR-RES ovarian, 0.489 µM; in the assay with UO-31 renal, 0.385 µM; in the assay on SK-MEL-2 melanoma it was 0.808 µM; with HL-60(TB) leukemia, 0.483 µM; in the assay with NCI-H23 lung, 0.985 µM. For the same molecule, the TGI came out at 2.33 µM with EKVX NSCLC; 6.32 µM in the assay with HOP-92 NSCLC; 0.433 µM in the assay on SN12C renal; 1.79 µM with SK-OV-3 ovarian; 4.69 µM in the assay with SF-268 CNS; 2.73 µM with DU-145 prostate. Also, in the assay with HCC-2998 colon, the TGI was 0.94 µM.

With `O=[N+]([O-])c1ccc(S(=O)(=O)N=Ic2ccccc2)cc1`, the TGI in the assay on HT29 colon, with K-562 leukemia, in the assay on T-47D breast, in the assay with NCI-H460 lung, in the assay on NCI-H522 lung and in the assay with ACHN renal was greater than 100 µM throughout. Further, the TGI in the assay with OVCAR-8 ovarian, in the assay with NCI/ADR-RES ovarian, in the assay with UO-31 renal, in the assay on SK-MEL-2 melanoma, with HL-60(TB) leukemia and in the assay with NCI-H23 lung was greater than 100 µM throughout. For the same molecule, the TGI in the assay on EKVX NSCLC, in the assay on HOP-92 NSCLC, with SN12C renal, in the assay with SK-OV-3 ovarian, in the assay with SF-268 CNS and in the assay on DU-145 prostate was greater than 100 µM each time. Further, in the assay on HCC-2998 colon, the TGI is greater than 100 µM.
